According to PMC9166630, “SAR Probing of KX2-391 Provided Analogues With Juxtaposed Activity Profile Against Major Oncogenic Kinases” (Frontiers in Oncology, 2022):
Like-named read-outs stand apart in the source and are kept apart here.

Key:
HL60 leukemia cell line = experiment: CellTiter-Blue cell viability assay, HL60; assay type: cell-based; conditions: Homo sapiens, HL-60
Protocol: (§1) HL60, K562, MV4-11 and NB4 were purchased from CLS Cell Line Service GmbH (Eppelheim, Germany). All cell lines were cultured in RPMI-1640 medium supplemented with 10% fetal bovine serum (FBS) (Thermo Fisher Scientific) and 0.1% ciprofloxacin (2.5mg/ml; Cipla Limited; Mumbai, India), and were maintained at 37°C in the presence of 21% O2 and 5% CO2.
(§2) Cell viability was determined using the CellTiter®-Blue Cell Viability Assay kit (Promega, Madison, WI, USA). Approximately 10^4 cells were counted and plated in a 96-well plate in the presence of test compounds ranging from 0.01 to 10 or 20 µM in triplicate and were incubated for 48 h at 37°C in a humidified incubator. After the incubation period was complete, 20 µL of CellTiter®-Blue Cell Viability Assay reagent was added to each well and incubated for additional 2 h for the development of florescence. Florescence was measured at Ex/Em 540/590 on SpectraMax® i3 Multi-Mode microplate reader (Molecular Devices, LLC; San Jose, CA, USA) and plotted against drug concentration to determine the IC50 of the test compounds. The IC50 was obtained by non-linear regression model using GraphPad Prism 6.07 (GraphPad Software, Inc, USA).

NB4 leukemia cell line = experiment: CellTiter-Blue cell viability assay, NB4; assay type: cell-based, human; conditions: Homo sapiens
Protocol: as §1, §2

K562 leukemia cell line = experiment: CellTiter-Blue cell viability assay, K562; assay type: cell-based; conditions: Homo sapiens
Protocol: as §1, §2

[1] = system: MV4-11 leukemia cell line; experiment: CellTiter-Blue cell viability assay, MV4-11; assay type: cell-based; conditions: Homo sapiens
Protocol: as §1, §2

[2] = CellTiter-Blue, 48 h, maximum tested concentration 20 µM, read-out: IC50 ± SEM, HL60
[3] = 48 h, CellTiter-Blue, 48 h, maximum tested concentration 20 µM, read-out: IC50 ± SEM, NB4
[4] = CellTiter-Blue, 48 h, maximum tested concentration 20 µM, read-out: IC50 ± SEM, K562
[5] = CellTiter-Blue, 48 h, maximum tested concentration 20 µM, read-out: IC50 ± SEM, MV4-11

IC50 (HL60 leukemia cell line; [2]) [µM]	IC50 (NB4 leukemia cell line; [3]) [µM]	IC50 (K562 leukemia cell line; [4]) [µM]	IC50 [1, 5] [µM]	melting point [°C]	IC50 (HL60 leukemia cell line; positive reference for validation, read-out: IC50, HL60) [µM]	IC50 (NB4 leukemia cell line; positive reference for validation, read-out: IC50, NB4) [µM]	IC50 (K562 leukemia cell line; positive reference for validation, read-out: IC50, K562) [µM]	IC50 ([1]; positive reference for validation, read-out: IC50, MV411) [µM]	Compound
> 20	5.33 ± 1.43	13.04 ± 0.04	20 ± 0.16	186	–	–	–	–	COc1ccc(C(=O)Nc2ccc(CC(=O)NCc3ccccc3)cc2)cc1Cl [Compound 4j, N-(4-(2-(benzylamino)-2-oxoethyl)phenyl)-3-chloro-4-methoxybenzamide]
6.24 ± 3.3	1.74 ± 0.16	4 ± 1.5	2.87 ± 0.3	–	–	–	–	–	O=C(Cc1ccc(NC(=O)c2cccc(Cl)c2)cn1)NCc1ccccc1 [Compound 4s, N-(6-(2-(benzylamino)-2-oxoethyl)pyridin-3-yl)-3-chlorobenzamide]
> 20	> 20	17.4 ± 2.63	16.3 ± 4.43	–	–	–	–	–	O=C(Cc1ccc(NC(=O)c2cccc(OCCN3CCOCC3)c2)cc1)NCc1ccccc1 [Compound 4i, N-(4-(2-(benzylamino)-2-oxoethyl)phenyl)-3-(2-morpholinoethoxy)benzamide]
> 20	8.77 ± 1.75	12.96 ± 0.08	18.85 ± 0.12	147	–	–	–	–	O=C(Cc1ccc(NC(=O)c2ccc(OCCN3CCOCC3)c(Cl)c2)cc1)NCc1ccccc1 [Compound 4l, N-(4-(2-(benzylamino)-2-oxoethyl)phenyl)-3-chloro-4-(2-morpholinoethoxy) benzamide]
3.27 ± 0.15	1.96 ± 1.33	4.23 ± 2.44	2.4 ± 0.49	–	–	–	–	–	COc1cccc(C(=O)Nc2ccc(CC(=O)NCc3ccccc3)cc2)c1 [Compound 4h, N-(4-(2-(benzylamino)-2-oxoethyl)phenyl)-3-methoxybenzamide]
> 20	–	> 20	> 20	160	–	–	–	–	O=C(Cc1ccc(NC(=O)c2cccc(Cl)c2)cc1)NCCc1ccccc1 [Compound 4q, 3-Chloro-N-(4-(2-oxo-2-(phenethylamino)ethyl)phenyl)benzamide]
> 20	5.89 ± 1.11	> 20	> 20	231	–	–	–	–	O=C(Cc1ccc(NC(=O)c2cncc(Cl)c2)cc1)NCc1ccccc1 [Compound 4o, N-(4-(2-(benzylamino)-2-oxoethyl)phenyl)-5-chloronicotinamide]
> 20	3.46 ± 0.06	12.4 ± 1.39	6.33 ± 4.24	–	–	–	–	–	O=C(Cc1ccc(NC(=O)c2ccnc(Cl)c2)cc1)NCc1ccccc1 [Compound 4m, N-(4-(2-(benzylamino)-2-oxoethyl)phenyl)-2-chloroisonicotinamide]
> 20	9.88 ± 2.8	> 20	7.95 ± 0.31	215	–	–	–	–	COc1ccc(C(=O)Nc2ccc(CC(=O)NCc3ccccc3)cc2)cc1OC [Compound 4k, N-(4-(2-(benzylamino)-2-oxoethyl)phenyl)-3,4-dimethoxybenzamide]
–	–	–	–	–	0.0121	0.0033	0.0145	0.00419	O=C(Cc1ccc(-c2ccc(OCCN3CCOCC3)cc2)cn1)NCc1ccccc1 [KX2-391, Tirbanibulin]
> 20	> 20	> 20	> 20	217	–	–	–	–	O=C(Cc1ccc(NC(=O)c2ccc(Cl)o2)cc1)NCc1ccccc1 [Compound 4p, N-(4-(2-(benzylamino)-2-oxoethyl)phenyl)-5-chlorofuran-2-carboxamide]
> 20	–	> 20	> 20	206	–	–	–	–	O=C(Cc1ccc(NC(=O)c2cccc(Cl)c2)cc1)NCc1ccco1 [Compound 4r, 3-Chloro-N-(4-(2-((furan-2-ylmethyl)amino)-2-oxoethyl)phenyl)benzamide]
